Among the data in US10301284B2, “Therapeutic inhibitory compounds” (LifeSci Pharmaceuticals, Inc., priority 2016, dated 2019) are EC50, AUC and IC50 values, retold here.

Read-outs that look alike come from different tables or passages of the source.

For data set [1], the target named is T1, human Plasma Kallikrein (Homo sapiens (Human), UniProt P03952). In words: Human whole blood kallikrein inhibition (ellagic acid-activated human plasma, Z-FR-2-AMC substrate). Type of data set: biochemical. The procedure:
The ability of the compounds disclosed herein to inhibit human plasma kallikrein activity was quantified according to the procedures below.
All dilutions were prepared in an assay buffer comprising 50 mM Tris-HCl pH 7.2, 150 mM NaCl, and 0.01% Triton X-100.
Human plasma was thawed on ice and centrifuged for 15 min at 4° C. to remove platelets. A 1 mM stock solution of ellagic acid was diluted to 8 μM and mixed with human plasma, after removing platelets, at a ratio of 1:0.8. The mixture of human plasma and ellagic acid was further diluted 32-fold in the assay buffer, to yield the final mixture for use in the inhibition assay.
A 22.5 μL volume of the final mixture of human plasma and ellagic acid was added to a 96-well microwell plate and the plate was incubated for 15 min at 37° C.
The test compound solution was prepared to provide final concentrations of 20 μM, 5 μM, 1.25 μM, 312.5 nM, 78.125 nM, 19.531 nM, 4.883 nM, 1.221 nM, 0.305 nM, and 0.076 nM. Each test compound concentration was tested in duplicates.
In addition to the inhibitor control and test wells, the 96 well assay plate included positive control wells which contain the mixture of human plasma and ellagic acid without test compounds, and background wells which contain neither the mixture of human plasma and ellagic acid nor the test compounds. The total volume of liquid in positive control and background wells was brought up to 35 μL using the assay buffer.
The assay plate containing test compounds mixed with human plasma and ellagic acid and appropriate controls was incubated at 37° C. for 5 min. A 10 mM stock solution of substrate Z-FR-2-AMC was diluted to 133.2 μM in the assay buffer, and 15 μL of the diluted substrate was added to each well, to yield a final substrate concentration of 40 μM in each well. The reagents were mixed by shaking the plate gently for 30 sec.
The enzyme reaction was quantified by immediate kinetic reading of the assay plate using excitation/emission wavelengths of 330 nm/440 nm respectively. Fluorescence intensity was recorded for 60 min, using a time interval of 43 sec.
The inhibition activity of the test compounds were evaluated using the IC50 values, calculated according to the dose-response curve of the test compounds, fitted using the “log(inhibitor)−response(variable slope)” equation in GraphPadPrism software (GraphPad Software, Inc.).
The percentage inhibition (EC50) was calculated using the following equation:
[formula] where, Mean(BG) is the average value of the fluorescence intensity of the background wells and Mean(PC) is the average value of the fluorescence intensity of the positive control wells.

Data set [2] can be described thus: Pharmacokinetic evaluation, oral exposure in rats. Type of data set: in vivo. To be noted: male Sprague-Dawley rats, single oral dose 10 mg/kg via oral gavage, plasma. The procedure: Pharmacokinetic studies of select compounds were performed to assess the pharmacokinetic properties. Male Sprague-Dawley rats were administered a single oral dose of the test compound at 10 mg/kg (dose concentration: 2 mg/mL, dose volume: 5 ml/kg) via oral gavage. Blood samples were collected via jugular vein at pre-dose, post-dose 5 min, 15 min, 30 min, 1 h, 2 h, 4 h, 6 h, 8 h, 10 h and 24 h, and centrifuged (8000 rpm for 6 minutes at 2-8° C.). The resulting plasma fractions were analyzed by LC/MS/MS to determine the concentration of the test compound.

Data set [3] addresses T1, human Plasma Kallikrein. As to the kind of experiment: In vitro enzyme inhibition of human plasma kallikrein (Pro-Phe-Arg-AMC cleavage). In kind it is biochemical. The settings on record: human plasma kallikrein, PFR-AMC substrate, 37° C.; read-out: hPK IC50. The method, boiled down:
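Human plasma kallikrein preincubated 5 min at 37 °C with compound in 50 mM Tris-HCl pH 7.5, 150 mM NaCl, 0.01% Triton X-100. Reaction started with Pro-Phe-Arg-AMC, fluorescence read every 43 s for 1 h at 37 °C. IC50 from highest mean velocity over 20 reads (~15 min).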

Setting [4] is: human plasma activated with ellagic acid, Z-FR-2-AMC 40 μM, 37° C., read-out: HWB EC50.

T1 sequence (P03952 391-638 limits assumed): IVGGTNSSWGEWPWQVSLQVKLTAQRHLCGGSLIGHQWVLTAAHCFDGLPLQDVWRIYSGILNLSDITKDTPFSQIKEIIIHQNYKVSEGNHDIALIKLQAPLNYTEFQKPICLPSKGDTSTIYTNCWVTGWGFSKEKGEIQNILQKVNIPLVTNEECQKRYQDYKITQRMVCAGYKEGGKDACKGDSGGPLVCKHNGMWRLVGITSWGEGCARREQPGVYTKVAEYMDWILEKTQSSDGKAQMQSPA
T1 sequence (P03952 20-390 partner limits assumed): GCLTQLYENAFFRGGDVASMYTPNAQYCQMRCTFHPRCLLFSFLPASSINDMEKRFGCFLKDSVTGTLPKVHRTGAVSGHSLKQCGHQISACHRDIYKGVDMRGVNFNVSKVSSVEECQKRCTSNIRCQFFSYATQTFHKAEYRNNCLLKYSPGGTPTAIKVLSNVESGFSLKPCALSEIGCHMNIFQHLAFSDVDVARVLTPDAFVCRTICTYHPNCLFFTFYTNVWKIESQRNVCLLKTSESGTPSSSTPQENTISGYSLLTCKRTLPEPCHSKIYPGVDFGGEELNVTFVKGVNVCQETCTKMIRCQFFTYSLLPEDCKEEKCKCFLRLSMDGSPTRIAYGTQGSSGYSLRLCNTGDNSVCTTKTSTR

The EC50 is the concentration that produces a half-maximal response. For orientation: AUC means concentration integrated over time. Usually IC50 stands for the point on the concentration scale where inhibition reaches its midpoint. For the molecule `Cc1cnc2ccc(Cn3cc(C(=O)NCc4c(C)cc(N)nc4C)c(C#N)n3)cc2c1` [Example 81, N-((6-amino-2,4-dimethylpyridin-3-yl)methyl)-3-cyano-1-((3-methylquinolin-6-yl)methyl)-1H-pyrazole-4-carboxamide], the EC50 on human Plasma Kallikrein [1] (setting [4]) is below 100 nM. Also, the AUC in data set [2] (rat, read-out: AUC) is 100 to 1000 ng·h/mL. Also, the IC50 at human Plasma Kallikrein [3] is below 100 nM.

`Cc1cc(N)nc(C)c1CNC(=O)c1cn(Cc2ccc3ncc(Cl)cc3c2)nc1C(F)(F)F` [Example 15, N-((6-amino-2,4-dimethylpyridin-3-yl)methyl)-1-((3-chloroquinolin-6-yl)methyl)-3-(trifluoromethyl)-1H-pyrazole-4-carboxamide]: the EC50 at human Plasma Kallikrein [1] (setting [4]) is below 100 nM. Further, in data set [2] (rat, read-out: AUC), the AUC fell in the range of 1000 to 10000 ng·h/mL. On human Plasma Kallikrein [3], the IC50 was below 100 nM.

`Cc1cc(N)nc(C)c1CNC(=O)c1noc(Cc2ccc3ncc(Cl)cc3c2)n1` [Example 7, N-((6-amino-2,4-dimethylpyridin-3-yl)methyl)-5-((3-chloroquinolin-6-yl)methyl)-1,2,4-oxadiazole-3-carboxamide]: the EC50 at human Plasma Kallikrein [1] (setting [4]) was below 100 nM. Also, in data set [2] (rat, read-out: AUC), the AUC fell in the range of 1000 to 10000 ng·h/mL. Also, the IC50 at human Plasma Kallikrein [3] was below 100 nM.

For the molecule `CC(C)(O)c1cc(Cn2cc(C(=O)NCc3ccc4c(N)nccc4c3)c(C#N)n2)cc2cc(Cl)cnc12` [Example 59, N-((1-aminoisoquinolin-6-yl)methyl)-1-((3-chloro-8-(2-hydroxypropan-2-yl)quinolin-6-yl)methyl)-3-cyano-1H-pyrazole-4-carboxamide], the EC50 on human Plasma Kallikrein [1] (setting [4]) was below 100 nM. In addition, the AUC in data set [2] (rat, read-out: AUC) was below 100 ng·h/mL. Also, the IC50 on human Plasma Kallikrein [3] was below 100 nM.

With `CC(=O)Nc1cn(Cc2ccc3ncc(Cl)cc3c2)nc1C(=O)NCc1c(C)cc(N)nc1C` [Example 19, 4-acetamido-N-((6-amino-2,4-dimethylpyridin-3-yl)methyl)-1-((3-chloroquinolin-6-yl)methyl)-1H-pyrazole-3-carboxamide], the 50% effective concentration (EC50) at human Plasma Kallikrein [1] (setting [4]) was below 100 nM. The AUC in data set [2] (rat, read-out: AUC) fell in the range of 100 to 1000 ng·h/mL. Besides, on human Plasma Kallikrein [3], the IC50 is below 100 nM.

The molecule `COc1cc2c(C(=O)NCc3c(C)cc(N)nc3C)nn(Cc3ccc4ncc(Cl)cc4c3)c2cn1` [Example 122, N-((6-amino-2,4-dimethylpyridin-3-yl)methyl)-1-((3-chloroquinolin-6-yl)methyl)-5-methoxy-1H-pyrazolo[3,4-c]pyridine-3-carboxamide] registered an EC50 at human Plasma Kallikrein [1] below 100 nM. In addition, in data set [2] (rat, read-out: AUC), the AUC lay in the range of 100 to 1000 ng·h/mL. In addition, the IC50 on human Plasma Kallikrein [3] is below 100 nM.

`Cc1cc(N)nc(C)c1CNC(=O)c1nn(Cc2ccc3ncc(Cl)cc3c2)cc1C(F)(F)F` [Example 22, N-((6-amino-2,4-dimethylpyridin-3-yl)methyl)-1-((3-chloroquinolin-6-yl)methyl)-4-(trifluoromethyl)-1H-pyrazole-3-carboxamide]: the EC50 on human Plasma Kallikrein [1] (setting [4]) is below 100 nM. For the same molecule, the AUC in data set [2] (rat, read-out: AUC) lay in the range of 100 to 1000 ng·h/mL. Further, the IC50 on human Plasma Kallikrein [3] was below 100 nM.

As to `Cc1cc(N)nc(C)c1CNC(=O)c1nn(Cc2ccc3ncc(Cl)cc3c2)c2ccc(=O)[nH]c12` [Example 138, N-((6-amino-2,4-dimethylpyridin-3-yl)methyl)-1-((3-chloroquinolin-6-yl)methyl)-5-oxo-4,5-dihydro-1H-pyrazolo[4,3-b]pyridine-3-carboxamide], the EC50 on human Plasma Kallikrein [1] was below 100 nM. For the same molecule, in data set [2] (rat, read-out: AUC), the AUC was below 100 ng·h/mL. For the same molecule, the IC50 on human Plasma Kallikrein [3] is below 100 nM.

Consider `Cc1cc(N)nc(C)c1CNC(=O)c1cnc(Cc2ccc3ncc(Cl)cc3c2)[nH]1` [Example 5, N-((6-amino-2,4-dimethylpyridin-3-yl)methyl)-2-((3-chloroquinolin-6-yl)methyl)-1H-imidazole-5-carboxamide], for which, at human Plasma Kallikrein [1] (setting [4]), the EC50 was below 100 nM. Also, the AUC entry in data set [2] was “BLQ”. In addition, the IC50 at human Plasma Kallikrein [3] is below 100 nM.

Take `Cc1cc(N)nc(C)c1CNC(=O)c1cn(Cc2ccc3ncc(C4CC4)cc3c2)nc1C#N` [Example 65, N-((6-amino-2,4-dimethylpyridin-3-yl)methyl)-3-cyano-1-((3-cyclopropylquinolin-6-yl)methyl)-1H-pyrazole-4-carboxamide]: the EC50 at human Plasma Kallikrein [1] (setting [4]) is below 100 nM. Also, the AUC in data set [2] (rat, read-out: AUC) lay within 100 to 1000 ng·h/mL. In addition, at human Plasma Kallikrein [3], the IC50 is below 100 nM.

For the molecule “2-amino-N-((6-amino-2,4-dimethylpyridin-3-yl)methyl)-1-((3-chloroquinolin-6-yl)methyl)-1H-imidazole-4-carboxamide [Example 24]”, on human Plasma Kallikrein [1] (setting [4]), the EC50 was below 100 nM. Further, the AUC result in data set [2] is “B (>100 ng · h/mL to ≤1000 ng · h/mL)”. Moreover, the IC50 on human Plasma Kallikrein [3] is below 100 nM.

Molecule `Cc1cc(N)nc(C)c1CNC(=O)c1cn(Cc2ccc3ncc(Cl)cc3c2)c2ncncc12` [Example 32, N-((6-amino-2,4-dimethylpyridin-3-yl)methyl)-7-((3-chloroquinolin-6-yl)methyl)-7H-pyrrolo[2,3-d]pyrimidine-5-carboxamide] displayed an EC50 on human Plasma Kallikrein [1] below 100 nM. In data set [2] (rat, read-out: AUC), the AUC was below 100 ng·h/mL. The IC50 at human Plasma Kallikrein [3] was below 100 nM.

As for `Cc1cc(N)nc(C)c1CNC(=O)c1nnc(Cc2ccc3ncc(Cl)cc3c2)n1C` [Example 98, N-((6-amino-2,4-dimethylpyridin-3-yl)methyl)-5-((3-chloroquinolin-6-yl)methyl)-4-methyl-4H-1,2,4-triazole-3-carboxamide], the half-maximal effective concentration (EC50) at human Plasma Kallikrein [1] (setting [4]) was below 100 nM. Moreover, in data set [2] (rat, read-out: AUC), the AUC was 1000 to 10000 ng·h/mL. For the same molecule, the IC50 at human Plasma Kallikrein [3] was below 100 nM.

For `Cc1cc(N)nc(C)c1CNC(=O)c1cn(Cc2ccc3ncc(Cl)cc3c2)c2cnc(C#N)cc12` [Example 134, N-((6-amino-2,4-dimethylpyridin-3-yl)methyl)-1-((3-chloroquinolin-6-yl)methyl)-5-cyano-1H-pyrrolo[2,3-c]pyridine-3-carboxamide], the EC50 on human Plasma Kallikrein [1] is below 100 nM. The AUC entry in data set [2] is “BLQ”. Moreover, the IC50 at human Plasma Kallikrein [3] was below 100 nM.

As to `COc1nn(Cc2ccc3ncc(Cl)cc3c2)cc1C(=O)NCc1c(C)cc(N)nc1C` [Example 39, N-((6-amino-2,4-dimethylpyridin-3-yl)methyl)-1-((3-chloroquinolin-6-yl)methyl)-3-methoxy-1H-pyrazole-4-carboxamide], the EC50 at human Plasma Kallikrein [1] (setting [4]) is below 100 nM. Also, in data set [2] (rat, read-out: AUC), the AUC fell in the range of 1000 to 10000 ng·h/mL. In addition, the IC50 on human Plasma Kallikrein [3] was below 100 nM.

Regarding `Cc1cc(N)nc(C)c1CNC(=O)c1cn(Cc2ccc3ncc(Cl)cc3c2)nc1C` [Example 38, N-((6-amino-2,4-dimethylpyridin-3-yl)methyl)-1-((3-chloroquinolin-6-yl)methyl)-3-methyl-1H-pyrazole-4-carboxamide], the EC50 on human Plasma Kallikrein [1] (setting [4]) was below 100 nM. Moreover, the AUC in data set [2] (rat, read-out: AUC) was 1000 to 10000 ng·h/mL. Also, on human Plasma Kallikrein [3], the IC50 was below 100 nM.

Regarding `Cc1cc(N)nc(C)c1CNC(=O)c1cn(Cc2ccc3ncc(Cl)cc3c2)c2cnccc12` [Example 16, N-((6-amino-2,4-dimethylpyridin-3-yl)methyl)-1-((3-chloroquinolin-6-yl)methyl)-1H-pyrrolo[2,3-c]pyridine-3-carboxamide], at human Plasma Kallikrein [1], the EC50 is below 100 nM. The AUC in data set [2] (rat, read-out: AUC) was 100 to 1000 ng·h/mL. Further, the IC50 at human Plasma Kallikrein [3] is below 100 nM.

As to `Cc1cc(N)nc(C)c1CNC(=O)c1nn(Cc2ccc3ncc(Cl)cc3c2)cc1C#N` [Example 36, N-((6-amino-2,4-dimethylpyridin-3-yl)methyl)-1-((3-chloroquinolin-6-yl)methyl)-4-cyano-1H-pyrazole-3-carboxamide], the EC50 on human Plasma Kallikrein [1] (setting [4]) is below 100 nM. Also, the AUC in data set [2] (rat, read-out: AUC) was 100 to 1000 ng·h/mL. The IC50 on human Plasma Kallikrein [3] was below 100 nM.

For `Cc1cc(N)nc(C)c1CNC(=O)c1cnn(Cc2ccc3ncc(Cl)cc3c2)c1` [Example 2, N-((6-amino-2,4-dimethylpyridin-3-yl)methyl)-1-((3-chloroquinolin-6-yl)methyl)-1H-pyrazole-4-carboxamide], at human Plasma Kallikrein [1] (setting [4]), the EC50 was below 100 nM. The AUC in data set [2] (rat, read-out: AUC) was 100 to 1000 ng·h/mL. The IC50 on human Plasma Kallikrein [3] is below 100 nM.
